Test results: ChEMBL document CHEMBL1201862, “PubChem BioAssay data set” (2004)
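Values below derive from 48-hour exposures of cells grown in 96-well plates, with endpoints linearly interpolated between the two concentrations bracketing the appropriate inhibition level. Here, GI50 denotes the concentration required for 50% inhibition of growth.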 Active and inactive are the calls of the source. Cut-off read from the data, not from the text of the source: active = GI50 up to about 1.1 µM and inactive = higher.

How the values were obtained:
Experiment in all cases: inhibition of tumour cell growth, NCI panel, 48 h
EKVX = test system: EKVX
U-251 = test system: U-251
Hs-578T = test system: Hs-578T
UO-31 = test system: UO-31
HOP-62 = test system: HOP-62
HT-29 = test system: HT-29
MCF7 = test system: MCF7
A549 = test system: A549
SK-MEL-2 = test system: SK-MEL-2
SK-MEL-5 = test system: SK-MEL-5
NCI-H226 = test system: NCI-H226
Malme-3M = test system: Malme-3M
HCT-15 = test system: HCT-15
K562 = test system: K562
SK-MEL-28 = test system: SK-MEL-28
SF-268 = test system: SF-268
SW-620 = test system: SW-620
OVCAR-3 = test system: OVCAR-3
UACC-257 = test system: UACC-257
HOP-92 = test system: HOP-92

Compound	GI50 (EKVX)	GI50 (U-251)	GI50 (Hs-578T)	GI50 (UO-31)	GI50 (HOP-62)	GI50 (HT-29)	GI50 (MCF7)	GI50 (A549)	GI50 (SK-MEL-2)	GI50 (SK-MEL-5)	GI50 (NCI-H226)	GI50 (Malme-3M)	GI50 (HCT-15)	GI50 (K562)	GI50 (SK-MEL-28)	GI50 (SF-268)	GI50 (SW-620)	GI50 (OVCAR-3)	GI50 (UACC-257)	GI50 (HOP-92)
Cc1ccc2c(O)cc(-c3cc4ccccc4s3)nc2n1	27.4 µM (inactive)	> 100 µM (inactive)	> 41.6 µM (inactive)	0.0353 µM (active)	31.7 µM (inactive)	> 84.7 µM (inactive)	17.7 µM (inactive)	> 100 µM (inactive)	> 100 µM (inactive)	74.5 µM (inactive)	14.2 µM (inactive)	> 48.1 µM (inactive)	> 70.3 µM	> 100 µM (inactive)	> 100 µM (inactive)	43.2 µM (inactive)	> 100 µM (inactive)	> 100 µM (inactive)	> 100 µM (inactive)	
COC(=O)c1cc(NC(=O)Cn2c3ccccc3c3ccccc32)cn1C	34 µM (inactive)	26.4 µM (inactive)	14.2 µM (inactive)	25 µM (inactive)	25.6 µM (inactive)	49.9 µM (inactive)	59 µM (inactive)	26.7 µM (inactive)	47.9 µM (inactive)	65.8 µM (inactive)	21.6 µM (inactive)	30.2 µM (inactive)	92.7 µM	59.2 µM (inactive)	> 100 µM (inactive)	30.6 µM (inactive)	> 100 µM (inactive)	> 100 µM (inactive)	53.8 µM (inactive)	
COc1cc(C2c3c(ccc4ccccc34)C(=O)C3CCC(=O)N32)cc(OC)c1O (stereo not drawn)	> 25 µM (inactive)	> 25 µM (inactive)		> 25 µM (inactive)	> 25 µM (inactive)	> 25 µM (inactive)	> 25 µM (inactive)	> 25 µM (inactive)	> 25 µM (inactive)		> 25 µM (inactive)		> 25 µM	> 25 µM (inactive)	> 25 µM (inactive)		> 25 µM (inactive)	> 25 µM (inactive)	> 25 µM (inactive)	> 25 µM (inactive)
COc1ccccc1N1CCN(S(=O)(=O)c2ccc(Cl)cc2)C1=N	26.9 µM (inactive)	37.5 µM (inactive)	78 µM (inactive)	33.3 µM (inactive)	> 100 µM (inactive)		52.2 µM (inactive)	34.2 µM (inactive)	57.4 µM (inactive)	56.2 µM (inactive)			62.4 µM	61.7 µM (inactive)	75 µM (inactive)	> 100 µM (inactive)	64.6 µM (inactive)	97.9 µM (inactive)	41.6 µM (inactive)	
CCOC(=O)C1CN(C2CC2)CCC1=O (stereo not drawn)	> 100 µM (inactive)	> 100 µM (inactive)	> 100 µM (inactive)	> 100 µM (inactive)	> 100 µM (inactive)	> 100 µM (inactive)	> 100 µM (inactive)	> 100 µM (inactive)	> 100 µM (inactive)	> 100 µM (inactive)	> 100 µM (inactive)	> 100 µM (inactive)	> 100 µM	> 100 µM (inactive)	> 100 µM (inactive)	> 100 µM (inactive)	> 100 µM (inactive)	> 100 µM (inactive)	> 100 µM (inactive)	
COc1ccc2c(c1)CC[C@@H]1[C@@H]2CC[C@]2(C)C(=O)/C(=C/c3ccc(OC)c(OC)c3)C[C@@H]12	> 100 µM (inactive)	> 100 µM (inactive)		> 100 µM (inactive)	> 100 µM (inactive)		> 100 µM (inactive)	> 100 µM (inactive)	> 100 µM (inactive)	> 100 µM (inactive)		> 100 µM (inactive)	> 100 µM				> 100 µM (inactive)	> 100 µM (inactive)		97.5 µM (inactive)
CCCCNc1nc(N)nc(Nc2ccc(Br)cc2)c1N=O	> 100 µM (inactive)	31.1 µM (inactive)	27.5 µM (inactive)	28.1 µM (inactive)	37.2 µM (inactive)	86.5 µM (inactive)	74.6 µM (inactive)	33.7 µM (inactive)	> 100 µM (inactive)	> 100 µM (inactive)	> 100 µM (inactive)	> 100 µM (inactive)	78 µM	38.9 µM (inactive)	> 100 µM (inactive)	> 100 µM (inactive)	> 100 µM (inactive)	56.5 µM (inactive)	> 100 µM (inactive)	
Cn1/c(=N\c2ccc(Cl)cc2)sc2ccccc21	21.1 µM (inactive)	52.5 µM (inactive)	62.4 µM (inactive)	26.1 µM (inactive)	71.3 µM (inactive)	32.7 µM (inactive)		32.5 µM (inactive)	39.4 µM (inactive)	27.7 µM (inactive)	46 µM (inactive)	57.7 µM (inactive)	8.15 µM	57.9 µM (inactive)	> 100 µM (inactive)	> 100 µM (inactive)	39.8 µM (inactive)		35.7 µM (inactive)	23.3 µM (inactive)
CCCCCCCCCCC(=O)CCCCCCC(=O)O	31.8 µM (inactive)	20.7 µM (inactive)		23.7 µM (inactive)	25.4 µM (inactive)	18.5 µM (inactive)		15.3 µM (inactive)	25.8 µM (inactive)	15.5 µM (inactive)	32.8 µM (inactive)	20.8 µM (inactive)	13.5 µM	7.33 µM (inactive)	40 µM (inactive)	50.5 µM (inactive)	22.4 µM (inactive)	18.2 µM (inactive)	82.6 µM (inactive)	16.9 µM (inactive)
CCCC1(N2C(=O)c3ccc4c5c(ccc(c35)C2=O)N(C2(CCC)CCCCC2)C4=O)CCCCC1		> 100 µM (inactive)		> 100 µM (inactive)	> 100 µM (inactive)	> 100 µM (inactive)	> 100 µM (inactive)	> 100 µM (inactive)	> 100 µM (inactive)	> 100 µM (inactive)		> 100 µM (inactive)	> 100 µM	> 100 µM (inactive)	> 100 µM (inactive)	> 100 µM (inactive)	> 100 µM (inactive)	> 100 µM (inactive)		> 100 µM (inactive)
COc1cc([C@@H]2c3cc4c(cc3[C@@H](NC(=O)c3ccc(OC(C)=O)cc3)C3COC(=O)[C@@H]32)OCO4)cc(OC)c1O (stereo partly drawn)	4.18 µM (inactive)	0.308 µM (active)		14.3 µM (inactive)	0.714 µM (active)	5.01 µM (inactive)		0.275 µM (active)	5.57 µM (inactive)	1.99 µM (inactive)	0.798 µM (active)	2.43 µM (inactive)	9.95 µM	2.17 µM (inactive)	3.48 µM (inactive)	2.01 µM (inactive)	0.729 µM (active)	4.84 µM (inactive)	8.32 µM (inactive)	1.34 µM (inactive)
O=C(O)C(C1NCCS1)N1Cc2ccccc2C1 (stereo not drawn)	> 100 µM (inactive)	> 100 µM (inactive)		> 100 µM (inactive)	> 100 µM (inactive)	> 100 µM (inactive)	> 100 µM (inactive)	> 100 µM (inactive)	> 100 µM (inactive)	> 100 µM (inactive)	> 100 µM (inactive)	> 100 µM (inactive)	> 100 µM	> 100 µM (inactive)	> 100 µM (inactive)		> 100 µM (inactive)	> 100 µM (inactive)	> 100 µM (inactive)	> 100 µM (inactive)
COc1nc2c(c(=O)[nH]1)N=C(c1ccccc1)CC(c1ccccc1)N2 (stereo not drawn)	48.9 µM (inactive)	44.9 µM (inactive)		39.6 µM (inactive)	95.1 µM (inactive)	44.7 µM (inactive)	42.2 µM (inactive)	55.6 µM (inactive)	29.6 µM (inactive)	38.3 µM (inactive)	72.6 µM (inactive)	72.9 µM (inactive)		25.3 µM (inactive)	72.9 µM (inactive)		35.7 µM (inactive)	> 100 µM (inactive)	> 100 µM (inactive)	80.9 µM (inactive)
O=C1C(CN2CCCCC2)CCCC1CN1CCCCC1 (stereo not drawn)	16.2 µM (inactive)	> 100 µM (inactive)	23.3 µM (inactive)	> 56.2 µM (inactive)		20.1 µM (inactive)	2.53 µM (inactive)	> 92 µM (inactive)		32.1 µM (inactive)	> 52.2 µM (inactive)	8.07 µM (inactive)	18.3 µM		17.4 µM (inactive)		5.45 µM (inactive)	18.6 µM (inactive)	17.2 µM (inactive)	
CC(C)=NOC(=O)OC[C@H]1O[C@@H](n2cnc3c(N)ncnc32)C(O)C1O (stereo partly drawn)	> 100 µM (inactive)	> 100 µM (inactive)	> 100 µM (inactive)	> 100 µM (inactive)	> 100 µM (inactive)	85.3 µM (inactive)	91.6 µM (inactive)	> 100 µM (inactive)	> 100 µM (inactive)	> 100 µM (inactive)	> 100 µM (inactive)	> 100 µM (inactive)	72.1 µM	30.1 µM (inactive)	> 100 µM (inactive)	> 100 µM (inactive)	89.3 µM (inactive)	> 100 µM (inactive)		
C=C1CC/C=C(\C)C(=O)C[C@@H]2[C@@H]1CC2(C)C [BUDDLEDIN C]	7.45 µM (inactive)	6.79 µM (inactive)		2.62 µM (inactive)	15.3 µM (inactive)	2.44 µM (inactive)	0.561 µM (active)	13.9 µM (inactive)	17.5 µM (inactive)	2.84 µM (inactive)	14.8 µM (inactive)	2.48 µM (inactive)	0.689 µM	1.82 µM (inactive)	2.75 µM (inactive)	14.1 µM (inactive)	1.1 µM (active)	6.34 µM (inactive)	4.66 µM (inactive)	1.97 µM (inactive)
